Each block holds one molecule with its values, some of them ahead of it.
Columns and labels:
[1] = target: T1, Cathepsin G (Homo sapiens, UniProt P08311); assay: Inhibition of Cathepsin G (CatG)
T1 sequence (P08311 whole entry): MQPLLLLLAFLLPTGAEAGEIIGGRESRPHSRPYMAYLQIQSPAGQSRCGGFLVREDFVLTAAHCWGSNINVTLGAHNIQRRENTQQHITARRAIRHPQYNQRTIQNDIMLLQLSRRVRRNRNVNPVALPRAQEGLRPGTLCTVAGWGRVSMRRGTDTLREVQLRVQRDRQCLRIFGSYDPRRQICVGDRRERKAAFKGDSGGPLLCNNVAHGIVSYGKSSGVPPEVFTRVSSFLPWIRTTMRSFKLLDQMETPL

[2] = target: T2, Neutrophil elastase (Homo sapiens, UniProt P08246); assay: In vitro inhibition of human leukocyte elastase.
T2 sequence (P08246 whole entry): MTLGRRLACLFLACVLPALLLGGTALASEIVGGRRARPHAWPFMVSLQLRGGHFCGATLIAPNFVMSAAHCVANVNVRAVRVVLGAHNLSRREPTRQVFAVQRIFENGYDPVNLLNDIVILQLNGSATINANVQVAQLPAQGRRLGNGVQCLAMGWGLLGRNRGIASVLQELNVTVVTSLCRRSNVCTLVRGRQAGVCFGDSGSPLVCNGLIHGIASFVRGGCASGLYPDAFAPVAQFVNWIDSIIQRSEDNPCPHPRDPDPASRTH

[3] = target: T1, Cathepsin G; assay: Compound was tested for the enzyme inhibitory activity against Cathepsin G
[4] = target: T2, Neutrophil elastase; assay: Compound was tested for the enzyme inhibitory activity against Human Leukocyte elastase
[5] = target: T2, Neutrophil elastase; assay: HLE-inhibitor (Human Leukocyte Elastase) dissociation constant determined by using Dixon Plot
[6] = target: T1, Cathepsin G; assay: Compound was tested for the enzyme inhibitory activity against Cathepsin G (CatG); NI = no inhibition
[7] = target: T2, Neutrophil elastase; assay: Compound was tested for the enzyme inhibitory activity against Human Leukocyte Elastase (HLE); NI = no inhibition
[8] = target: T1, Cathepsin G; assay: Compound was tested for the enzyme inhibitory activity against Cathepsin G; NI = no inhibition
[9] = target: T2, Neutrophil elastase; assay: Compound was tested for the enzyme inhibitory activity against Human Leukocyte Elastase (HLE)

IC50 [1]: 28 µM | IC50 [2]: 4.2 µM
Structure (SMILES): CCCCCCc1ccc2c(c1O)C(=O)c1c(O)cccc1C2=O

IC50 [3]: > 60 µM | IC50 [4]: 6 µM
Structure (SMILES): CCCCCCc1ccc2c(c1O)C(=O)c1c(OC)cccc1C2=O

IC50 [2]: 1.3 µM
Structure (SMILES): CCCCOC(=O)Oc1cc(OC(=O)OCCCC)c2c(c1)C(=O)c1cc(C)cc(OC(=O)OCCCC)c1C2=O

IC50 [2]: 12 µM | Ki [5]: 7.5 µM
Structure (SMILES): CCCCOC(=O)Oc1cccc2c1C(=O)c1c(OC(=O)OCCCC)cccc1C2=O

IC50 [6]: Not Active | IC50 [2]: 39 µM
Structure (SMILES): Cc1ccc2c(c1)C(=O)c1ccccc1C2=O [TECTOQUINONE]

IC50 [6]: No inhibition
Structure (SMILES): COc1cccc2c1C(=O)c1c(ccc(CC(C)C)c1OC(C)=O)C2=O

IC50 [6]: Not Active | IC50 [7]: Not Active
Structure (SMILES): COc1cccc2c1C(=O)c1c(ccc(CC3CO3)c1O)C2=O (stereo not given)

IC50 [8]: Not Active | IC50 [4]: > 60 µM
Structure (SMILES): COc1c(C)ccc2c1C(=O)c1ccccc1C2=O

IC50 [2]: 4.2 µM
Structure (SMILES): CCCc1ccc2c(c1O)C(=O)c1c(O)cccc1C2=O

IC50 [1]: > 60 µM | IC50 [7]: Not Active
Structure (SMILES): C=CCc1ccc2c(c1OC)C(=O)c1c(OC)cccc1C2=O

IC50 [8]: Not Active | IC50 [4]: 6.6 µM
Structure (SMILES): O=C1c2ccccc2C(=O)c2c1ccc(Cc1ccccc1)c2O

IC50 [6]: No inhibition | IC50 [2]: 11 µM
Structure (SMILES): COc1cccc2c1C(=O)c1c(ccc(CC(C)C)c1O)C2=O

IC50 [2]: 13 µM
Structure (SMILES): O=C1c2cccc(O)c2C(=O)c2c1ccc(Cc1ccccc1)c2O

IC50 [2]: 5.9 µM
Structure (SMILES): CCCCc1ccc2c(c1O)C(=O)c1c(OC)cccc1C2=O

IC50 [1]: > 60 µM | IC50 [2]: 8.7 µM
Structure (SMILES): CCCc1ccc2c(c1O)C(=O)c1c(OC)cccc1C2=O

IC50 [2]: 6.4 µM
Structure (SMILES): CCCCc1ccc2c(c1O)C(=O)c1c(O)cccc1C2=O

IC50 [6]: No inhibition | IC50 [2]: 6.7 µM
Structure (SMILES): COc1cccc2c1C(=O)c1c(ccc(Cc3ccccc3)c1O)C2=O

Ki [5]: 0.15 µM | IC50 [9]: 1.8 µM
Structure (SMILES): CCCCOC(=O)Oc1cc(C)cc2c1C(=O)c1c(OC(=O)OCCCC)cc(OCCC)cc1C2=O

IC50 [2]: 5.1 µM | Ki [5]: 1.9 µM
Structure (SMILES): CCCCOC(=O)Oc1cccc2c1C(=O)c1c(OC(=O)OCCCC)cc(C)cc1C2=O

IC50 [6]: Not Active | IC50 [2]: 19 µM
Structure (SMILES): COc1cccc2c1C(=O)c1c(ccc(C)c1O)C2=O

IC50 [2]: 8 µM
Structure (SMILES): CC(C)Cc1ccc2c(c1O)C(=O)c1c(O)cccc1C2=O

IC50 [2]: 3.9 µM
Structure (SMILES): CCCCCc1ccc2c(c1O)C(=O)c1c(O)cccc1C2=O

IC50 [1]: > 60 µM | IC50 [2]: 11 µM
Structure (SMILES): C=CCc1ccc2c(c1O)C(=O)c1c(OC)cccc1C2=O

IC50 [2]: 2.1 µM | Ki [5]: 0.43 µM
Structure (SMILES): CCCCCCc1ccc2c(c1OC(=O)OCCCC)C(=O)c1c(OC(=O)OCCCC)cccc1C2=O

IC50 [6]: Not Active
Structure (SMILES): CCc1ccc2c(c1)C(=O)c1ccccc1C2=O

IC50 [2]: 9.9 µM
Structure (SMILES): Cc1ccc2c(c1O)C(=O)c1c(O)cccc1C2=O

IC50 [3]: > 60 µM | IC50 [4]: 11 µM
Structure (SMILES): Cc1ccc2c(c1O)C(=O)c1ccccc1C2=O

Ki [5]: 2.8 µM | IC50 [9]: 2.5 µM
Structure (SMILES): CCCCOC(=O)Oc1cc(C)cc2c1C(=O)c1c(OC(=O)OCCCC)cc(OC)cc1C2=O

IC50 [6]: Not Active | IC50 [7]: Not Active
Structure (SMILES): COc1cccc2c1C(=O)c1c(ccc(Cc3ccccc3)c1OC(C)=O)C2=O

IC50 [1]: > 60 µM | IC50 [2]: 6.1 µM
Structure (SMILES): CCCCCc1ccc2c(c1O)C(=O)c1c(OC)cccc1C2=O
